Experiments:
[1] = system: HT-1080; assay: TACS MTT cell proliferation / metabolic activity assay in HT-1080; assay type: cell-based, human; conditions: HT-1080, 0.1 to 100 μM
Method: (§1) HEI-OC1 cells derived from the mouse OC (kindly provided by Dr. F. Kalinec) were cultured under permissive conditions (33 °C, 10% CO2) as described in [22]. Additionally, we assessed the activity of Qx-derived compounds in the mouse neuroblastoma cell line, Neuro-2A, and the human fibrosarcoma HT-1080 (ATCC, Manassas, VA, USA) following the standard cell culture guidelines provided by the vendor.
(§2) In vitro cell proliferation effects of all ten initial compounds (Figure 1A,B) were tested on HEI-OC1, Neuro-2A and HT-1080 cells by TACS® 3-(4,5-dimethylthiazol-2-yl)-2,5-diphenyltetrazolium bromide (MTT) Cell Proliferation Assay (R&D Systems, Minneapolis, MN, USA, 4890-025-K), following the manufacturer’s protocol. Absorbance was measured with SpectraMax® M Series Multi-Mode Microplate Reader with Soft Max Pro 7.2 GxP Software (Molecular Devices, Sunnyvale, CA, USA), and the average OD in control cells was taken as 100% of viability. Upon selecting the most viable compounds (Qx-294 and Qx-301), we proceeded with in vivo experiments. For zebrafish treatment, animals were incubated for varied times with different concentrations (50, 100, 150, 200, 250, and 300 μg/mL) of Qx-294 or Qx-301 diluted in swimming (E3) media or administered via IP injections. Mice treatment followed the same procedures as described in [18]. Following treatment, animals or tissue samples were incubated in Click-it EdU or Click-it Plus TUNEL kits (Thermo Scientific, Waltham, MA, USA), following the manufacturer’s instructions to label proliferating and apoptotic cells, respectively.

[2] = system: mouse organ of Corti; assay: EdU proliferation assay in the mouse organ of Corti; assay type: in vivo; conditions: mice, single IP 300 mg/kg; for EdU-positive cells in the OC at 72 h: 72 h treatment group; for EdU-positive cells in the OC at 24 h and 48 h: EdU 50 mg/kg, 4 h, unpaired T-test, p < 0.05
Method: C57BL/6J male and female mice between postnatal day 24 and 30 P-24-30) were randomized into control and experimental groups (9 mice per group per compound), with each experimental group receiving a single intraperitoneal (IP) injection of Qx-294 or Qx-301 at a dose of 300 mg/kg body weight, dissolved in dimethyl sulfoxide (DMSO). Controls consisted of treatment with DMSO alone (vehicle). A total of 90 adult wild-type C57/BL6 mice were used in this study. Based on the analysis, animals were examined at various times following treatment as described below.
as §2
Cell numbers in mouse cochleae or fish, as well as fish neuromast morphologies, were evaluated in 25 zebrafish per drug and treatment group across three experimental runs. For mouse analyses, 18 cochleae (from 9 mice) per treatment and three experimental repetitions were examined. Images were analyzed at 200X magnification, obtained from different neuromasts and cochlear regions (apex, middle, and base). HCs were quantified in the mouse OC by counting M7a-positive cells, with HC identity further confirmed by phalloidin-labeled stereocilia. Apoptosis and cell proliferation events, on the other hand, were quantified by counting TUNEL- and EdU-positive cells, respectively. […] The number of HCs (IHCs and OHCs) is expressed as units per 200 μm. […] IHCs and OHCs were counted on reconstructed confocal stacks using NIH ImageJ v1.8.0 software. […] Reliability statistics were calculated in SPSS v22.0. […] Fluorescence incorporation following treatment with FM1-43 was quantified according to [19] using ImageJ. […]

[3] = system: HEI-OC1 cells; assay: TACS MTT cell proliferation / metabolic activity assay in HEI-OC1; assay type: cell-based, mouse; conditions: for Metabolic activity throughout all concentrations: 0.1–100 μM, throughout all concentrations and cell lines; for Proliferative effect vs Qx-70 and untreated cells: HEI-OC1, TACS MTT
Method: as §1, §2

[4] = system: zebrafish neuromast cells; assay: TUNEL assay in zebrafish neuromasts; assay type: in vivo, zebrafish (Danio rerio); conditions: 6 h incubation, any concentration tested
Method: Absorbance was measured with SpectraMax® M Series Multi-Mode Microplate Reader with Soft Max Pro 7.2 GxP Software (Molecular Devices, Sunnyvale, CA, USA), and the average OD in control cells was taken as 100% of viability. […] Mice treatment followed the same procedures as described in [18]. Following treatment, animals or tissue samples were incubated in Click-it EdU or Click-it Plus TUNEL kits (Thermo Scientific, Waltham, MA, USA), following the manufacturer’s instructions to label proliferating and apoptotic cells, respectively.

[5] = system: mechanotransduction channel activity of mouse cochlear HCs; assay: FM1-43 uptake in mouse cochlear HCs; assay type: in vivo; conditions: mice, 24, 48 and 72 h after injection
Method: The styryl pyridinium dye FM1-43 provides an optical measure of mechanotransduction channel function and, therefore, was used as a proxy for the viability of the neuromast cells treated with QX-294 or QX-301, as well as indirect information on the functional capability of newly formed HCs. FM1-43FX (Thermo Scientific, Waltham, MA, USA) uptake experiments in zebrafish were performed as previously described. Zebrafish were incubated with E3 alone (control) or in the presence of Qx-294 or Qx-301, both at 300 μM, for 7 h and then immediately exposed to 3 μM FM1-43FX for 40 s. Alternatively, animals were transferred to a fresh E3 solution for 1 h and then exposed to the dye. For mouse treatment, 24, 48, and 72 h after animals were injected with […] Qx-294 or Qx-301, their cochleae were dissected, transiently exposed to FM1-43 FX dye (1 mg/mL) for 45 s, and then fixed in 4% PFA. All animals were P28 at completion of the treatment. Fluorescence incorporated was quantified according to [19] using ImageJ (ImageJ2 1.54r).

SMILES: c1ccc2nc(N3CCOCC3)cnc2c1 [Qx-294, 2-(morpholine)-quinoxaline]
- Proliferative state across all tested concentrations [1]: modest yet active proliferative state
- EdU-positive cells in the OC at 72 h [2]: no proliferating (EdU-positive) cells were observed
- EdU-positive cells in the OC at 24 h and 48 h [2]: higher percentage of EdU-positive cells
- Metabolic activity throughout all concentrations [3]: elevated yet stable metabolic activity
- Proliferative effect vs Qx-70 and untreated cells [3]: significant and reproducible proliferative effects greater than those of Qx-70 and the untreated cells
- Apoptosis (TUNEL) in neuromasts [4]: no signs of apoptosis
- FM1-43 fluorescence intensity incorporated by the cochleae vs control [5]: did not show any significant differences from the control samples

SMILES: c1ccc2nc(N3CCCC3)cnc2c1 [Qx-301, 2-(pyrrolidine)-quinoxaline]
- Proliferative state across all tested concentrations [1]: modest yet active proliferative state
- EdU-positive cells in the OC at 72 h [2]: no proliferating (EdU-positive) cells were observed
- EdU-positive cells in the OC at 24 h and 48 h [2]: higher percentage of EdU-positive cells
- Metabolic activity throughout all concentrations [3]: elevated yet stable metabolic activity
- Proliferative effect vs Qx-70 and untreated cells [3]: significant and reproducible proliferative effects greater than those of Qx-70 and the untreated cells
- Apoptosis (TUNEL) in neuromasts [4]: no signs of apoptosis
- FM1-43 fluorescence intensity incorporated by the cochleae vs control [5]: did not show any significant differences from the control samples

— paper PMC12731105, “Design and Synthesis of New Quinoxaline Analogs to Regenerate Sensory Auditory Hair Cells” (Cells, 2025)
